Measured values as given in US12062422B2, “System, method and computer-accessible medium for use of heavy water as a probe for imaging metabolic activities” (The Trustees of Columbia University in the City of New York, priority 2018, dated 2024).

What was measured:
HeLa cells [1] = test: SRS imaging of lipid droplets in HeLa cells, D-labeled fatty acids versus D2O; assay type: cell-based; conditions: for CDL signal distribution, lipid droplets: 10 μM D-labeled fatty acid, 6 hours
Description: For live-cell imaging, HeLa and COS-7 cells were seeded onto a glass-bottom dish (e.g., MatTek) and grown for 6 to 8 hours in regular DMEM before the medium was changed to DMEM containing 70% D2O. Cells were then grown for different periods of time before being placed onto the stage for SRS imaging. When treating cells with D-labeled fatty acids, they were first reacted with sodium hydroxide and then coupled to bovine serum albumin (“BSA”) in about 2:1 molar ratio to make 2 mM stock solution. Those stock solutions were then added to the medium to reach the final working concentration (e.g., 10 μM).
FIGS. 4A-4E illustrate the exemplary DO-SRS visualizes de novo lipogenesis in cultured cells and in C. elegans. […] The number of lipid droplets formed in the three conditions were quantified (mean±s.d.; N=5 for D-OA, 15 for D-PA, and 8 for D2O; double asterisks indicate p<0.01 in an unpaired t-test). CHL signal for D2O treatment confirmed the presence of few lipid droplets. […] Live bacteria were labeled by deuterium (element 405), and killed bacteria were not labeled (element 410). […] E. coli OP50 were seeded onto the D2O plates 24 hours before the experiments. Scale bar=20 μm. […] CDL mean intensity was plotted. For all C. elegans experiments, at least 8 animals were imaged for each condition to calculate mean intensity; mean±s.d. of the mean intensity was shown.

HeLa cells [2] = test: CellTiter-Glo Luminescent Cell Viability Assay, cellular toxicity of D2O; assay type: cell-based; conditions: medium containing D2O
Description: To determine cellular toxicity, HeLa cells and COS-7 cells were first seeded in […] plates at about 500 per cm^2 and grown overnight; the culture was then changed to DMEM containing different concentration (e.g., 0% to 100%) of D2O for about 48 hours. The viability of cell was accessed using the CellTiter-Glo® Luminescent Cell Viability Assay (e.g., Promega) according to the manufacturer's protocol. Cells cultured in pure DMEM medium were used as control and wells containing only medium without cells for background luminescence. Viability was calculated using the background-corrected […] as follows: Viability (%)=Absorbance of experiment well/Absorbance of control well×100%. Three replicates were performed.
(§1) FIGS. 10A-10E show exemplary graphs and images that illustrate toxicity of D2O on cells and C. elegans. […] Three replicates were performed. Mean and s.d. were shown. […] D-labeled OP50 refers to overnight grown culture of E. coli OP50 that were seeded onto the D2O-containing NGM plates 24 hours before the experiment; non-labeled OP50 refers to the experimental setup, in which bacteria were killed by UV after being placed onto the D2O plates and thus was not labeled by deuterium. Each group has 50 worms, and three replicates were made. Mean and s.d. were shown.

[3] = mouse, in vivo; cited from earlier work
[4] = in vivo; cited from earlier work
C. elegans = test: Toxicity of D2O on C. elegans (lethality, sterility, brood size, gonad development); assay type: in vivo
Description: C. elegans wild type (e.g., N2) and mutant strains were maintained at 20° C. using nematode growth media (“NGM”) and E. coli strain OP50 as a food source. (See. e.g., Reference 61). Different concentrations of D2O were added to replace H2O in NGM. E. coli OP50 were seeded on D2O-containing NGM plates and grown for 24 hours; worms were then placed at different ages onto those plates for various amount of time. To determine the toxicity of D2O, eggs were prepared using hypochlorite, which made the eggshell porous and permeable to D2O, placed them onto plates containing different concentration of D2O, and counted the number of eggs that could not hatch into normal moving larva. Fourth stage larva were placed onto those plates and counted how many animals became sterile and determined the brood size by counting the total number of hatch larvae from the all the eggs laid by one animal. Three replicates were performed.
as §1
50 worms were used for each treatment, and […] replicates were made. Mean and s.d. were shown. […] Scale bar=20 μm.

endoplasmic reticulum = conditions: approximately 200 μM; cited from earlier work
HeLa cells [5] = test: Raman spectra of D2O-treated HeLa cells with protein or lipid synthesis inhibitors; assay type: cell-based; conditions: 24 hours
Description: For inhibitor treatments, cells were first grown in glass bottom dishes with DMEM made of H2O overnight, and then the medium was changed to 70% D2O DMEM containing either 10 nM fatty acid synthase inhibitor TVB-3166 (e.g., Sigma CAS 1533438-83-3) or 1 μM protein synthesis inhibitor anisomycin (e.g., Sigma CAS 22862-76-6). Cells were then cultured for 24 hours, imaged by SRS microscopy, and fixed by 4% paraformaldehyde for spontaneous Raman spectroscopy.
Cells grown in DMEM made of 100% H2O were used as control.

mice = test: Injection of D-PA into mice, SRS imaging of CDL signal; assay type: in vivo; conditions: intraperitoneal bolus injection of 96 μmol
Description: To inject D-labeled palmitic acids (“D-Pas”) intravenously, mice were anesthetized by isoflurane, and one of the carotid arteries was cannulated for the implantation of a catheter. A syringe filled with 4 mM D-PA dissolved in mammalian Ringer's solution was then connected with the implanted catheter, and D-PA solution was perfused at 0.001 ml/min using a syringe pump (e.g., AL-1000, WPI). The administration lasted for 8 hours every day for three consecutive days before the mice were sacrificed and their organs were harvested, fixed, sectioned, and imaged by SRS. To inject D-PA intraperitoneally, 0.16 ml of 600 mM D-PA emulsion was injected into the lower right side of abdomen according to a previous method. (See, e.g., Reference 64). 17 hours later, the mice were sacrificed and their tissues were collected and imaged.
FIGS. 13A-13C show exemplary images that illustrate imaging de novo biosynthesis in various mouse organs. […] Lipid-rich sebaceous glands and adipose tissues were harvested from adult mice that drank 25% D2O for 8 and 15 days, respectively. Myelinated axon fibers of internal capsule were harvested from P11 mouse pups that were fed on milk produced by mother mice drinking 25% D2O for 6 days before imaging. […] Tissues were harvested, fixed, and imaged 17 hours after the injection. […] Scale bar=[…].

[2H]OC(=O)C([2H])([2H])C([2H])([2H])C([2H])([2H])C([2H])([2H])C([2H])([2H])C([2H])([2H])C([2H])([2H])/C([2H])=C(/[2H])C([2H])([2H])C([2H])([2H])C([2H])([2H])C([2H])([2H])C([2H])([2H])C([2H])([2H])C([2H])([2H])C([2H])([2H])[2H] [D-OA, D34-oleic acids]
number of lipid droplets, comparison (HeLa cells [1]; 10 μM): remarkably more lipid droplets than D-PA | CDL signal distribution, lipid droplets (HeLa cells [1]): accumulation of CDL signal in lipid droplets

[2H]O[2H] [D2O, deuterium oxide]
D2O concentration above which toxicity arises (HeLa cells [2]): exceeded 80% | D2O enrichment that did not cause any effect on physiological processes [3]: below 20% | adverse symptoms [4]: does not cause any adverse symptoms | body water enrichment [4]: approximately 2% | gonad development (C. elegans; 60% D2O, animals developed from L4 to adults on D2O plates): gonad developed normally | gonad development (C. elegans; 80% D2O): gonad development was disrupted | proliferation of the germ cells (C. elegans; 80% D2O): appeared to be affected | D2O concentration with no observable toxicity and no effect on cell division (C. elegans; C. elegans): < 60% | embryo formation (C. elegans; in vivo): normal embryos were formed | embryo formation in the uterus (C. elegans; in vivo): no embryos were formed | lipid droplets in CDL and CHL channels (HeLa cells [1]; 70% D2O, 24 hours): very few lipid droplets

CCCCCCCC/C=C\CCCCCCCC(=O)O [OA, oleic acid]
effect on endoplasmic reticulum membrane (endoplasmic reticulum): not

COc1ccc(C[C@H]2NC[C@H](O)[C@H]2OC(C)=O)cc1 [anisomycin]
peak of remaining C-D Raman signal (HeLa cells [5]; 1 μM anisomycin, 70% D2O DMEM, remaining D-labeled lipid signal): 2135 cm⁻¹

[2H]C([2H])([2H])C([2H])([2H])C([2H])([2H])C([2H])([2H])C([2H])([2H])C([2H])([2H])C([2H])([2H])C([2H])([2H])C([2H])([2H])C([2H])([2H])C([2H])([2H])C([2H])([2H])C([2H])([2H])C([2H])([2H])C([2H])([2H])C(=O)O [D-PA, D31-palmitic acids]
CDL signal distribution, lipid droplets (HeLa cells [1]): accumulation of CDL signal in lipid droplets | CDL signal in pancreas (mice): accumulation of CDL signal in the ER membrane of pancreatic cells

TVB-3166
peak of remaining C-D Raman signal (HeLa cells [5]; 10 nM TVB-3166, 70% D2O DMEM, remaining D-labeled protein signal): 2185 cm⁻¹

CCCCCCCCCCCCCCCC(=O)O [PA, palmitic acid]
effect on endoplasmic reticulum membrane (endoplasmic reticulum): drove the formation of solid-like microdomain and membrane phase separation in endoplasmic reticulum
